Measured values reported in patent US20080181971A1, “Combination Cancer Treatments Comprising Elsamitrucin and Other Agents” (priority 2007, published 2008).
Where “and” joins values, the source holds several entries; their conditions need not be identical. Equal entries are not always repeated. Where two headings read alike, the source gives them in different places.

Key:
[1] = test system: SKMES human non-small cell lung carcinoma cell line; experiment: MTT growth inhibition assay, single agents and fixed-ratio combinations with elsamitrucin (Chou-Talalay, CalcuSyn), SKMES; format: cell-based; settings: Homo sapiens
Description: (§1) These individual agents and their combinations were evaluated for in vitro activity against the HT29 colon carcinoma, SKMES non-small cell lung carcinoma, and Daudi B-lymphoblastic cell lines. Cell growth in 96-well microculture plates was determined with a semi-automated MTT assay. Efficacies of drug combinations were analyzed according to the methods of Chou and Talalay, utilizing CalcuSyn software. Twenty-one in vitro experiments were conducted to determine the individual and combined growth inhibitory activities of elsamitrucin and the ten selected agents in the three cell lines.
(§2) b. Cell Lines. The human HT29 colon carcinoma, SKMES non-small cell lung carcinoma, and Daudi B-lymphoblastic cell lines were originally obtained from ATCC (American Type Culture Collection). These cell lines have been maintained and stored as frozen stocks. […] The medium for Daudi cells was additionally supplemented with 1 mM sodium pyruvate.
(§3) c. Growth Inhibition Assay. Anti-proliferative activities against the HT29, SKMES, and Daudi cell lines were evaluated in vitro by the MTT assay. Cells (1,500-2,000 cells/well) were seeded in a 96-well microculture plate in 180 pL of medium/well. […] DMSO was present in all wells at a final concentration of 0.1%. […] When the appropriate cell density was attained in the control wells, the plates were centrifuged briefly, and 100 pL of the growth medium was removed. The cell cultures were incubated with 50 μL of MTT reagent (1 mg/mL in Dulbecco's phosphate-buffered saline) for 4 hr at 37° C. The resultant purple formazan precipitate was solubilized with 200 μL of 0.04 N HCl in isopropanol.
(§4) The results of each experiment were stored in Excel format.
(§5) d. Preliminary Experiments: Design and Data Analysis. […] The initial experiments utilized serial three-fold dilutions of the drugs to produce ten test concentrations over a broad concentration range. Based on the initial results, a narrower concentration range was selected, and serial 1:1.5 dilutions were utilized to produce ten test concentrations. Experiments were repeated as needed.
(§6) For assays that utilized lower dilution factors to produce narrower concentration ranges, the results were analyzed with both Prism and CalcuSyn (as described below) to allow comparison of the IC50 and Da, values. The results guided the selection of appropriate concentration ranges and concentration ratios for the combination experiments.
(§7) e. Combination Experiments: Design and Data Analysis. The fixed-ratio design of Chou was used for the combination experiments. For each experiment, the drug solutions were mixed at a ratio that was expected to provide approximately equipotent concentrations, and the mixture was serially diluted with medium containing 1% DMSO to yield 10× stock solutions of the test concentrations. […] Each agent was tested individually and in combination at seven concentrations. The concentration range selected for each assay was designed to bracket the concentrations that produced half-maximal effects (ED50) with each single agent and their mixture. The concentrations used for the single-drug assays were twice as high as their concentrations in the mixture. Each assay was performed in quadruplicate. For each drug combination, the individual agents and their mixture were assayed on the same 96-well plate. The effects of the individual drugs and their combinations were analyzed by the method of Chou and Talalay. The results of each experiment were entered into CalcuSyn (BIOSOFT) for dose-effect analysis.
(§8) where Acontrol and Adrug are the respective absorbances of vehicle control and drug-treated wells in the MIT assay.
(§9) where the slope, m, is related to the sigmoidicity of the dose-effect curve, with m=1, >1, and <1 indicating hyperbolic, sigmoidal, and reverse sigmoidal shapes, respectively.

[2] = test system: HT29 human colon carcinoma cell line; experiment: MTT growth inhibition assay, single agents and fixed-ratio combinations with elsamitrucin (Chou-Talalay, CalcuSyn), HT29; format: cell-based
Description: as §1, §2, §3, §4, §5, §6, §7, §8, §9

[3] = test system: Daudi human lymphoma cell line; experiment: MTT growth inhibition assay, single agents and fixed-ratio combinations with elsamitrucin (Chou-Talalay, CalcuSyn), Daudi; format: cell-based
Description: as §1, §2, §3, §4, §5, §6, §7, §8, §9

[4] = HCT116-e256 study: toxicity (body weight, treatment-related deaths, clinical signs); format: in vivo, nude mice
Description: f. Toxicity. Animals were weighed daily for the first five days of the study and then twice weekly. […] Acceptable toxicity is defined as a group mean body-weight loss of less than 20% during the study and not more than one treatment-related (TR) death among ten treated animals. […] A death was classified as TR if attributable to treatment side effects as evidenced by clinical signs and/or necropsy, or may be classified as TR if due to unknown causes during the dosing period or within 10 days of the last dose. A death was classified as an NTR if there is no evidence that death was related to treatment side effects.

[5] = test system: HCT116 human colon carcinoma; settings: i.v., qod x5; cited from earlier work
[6] = SPA-02 (SKMES-e22), single agent, dilution 1:3, read-out: Prism IC50
[7] = SPA-03 (SKMES-e23), single agent, dilution 1:1.5, read-out: CalcuSyn Dm
[8] = SPA-03 (SKMES-e23), single agent, dilution 1:1.5, read-out: Prism IC50
[9] = average of preliminary single-agent experiments, SKMES, read-out: Average IC50, Dm value
[10] = Homo sapiens, HT-29, SPA-01 (HT29-e21), single agent, dilution 1:3, read-out: Prism IC50
[11] = Homo sapiens, HT-29, SPA-04 (HT29-e22), single agent, dilution 1:1.5, read-out: CalcuSyn Dm
[12] = Homo sapiens, HT-29, SPA-04 (HT29-e22), single agent, dilution 1:1.5, read-out: Prism IC50
[13] = Homo sapiens, HT-29, average of preliminary single-agent experiments, HT29, read-out: Average IC50, Dm value
[14] = Homo sapiens, Daudi, SPA-05 (Daudi-e01), single agent, dilution 1:3, read-out: Prism IC50
[15] = Homo sapiens, Daudi, average of preliminary single-agent experiments, Daudi, read-out: Average IC50, Dm value
[16] = Groups 2,4,6,8,10: elsamitrucin 10 mg/kg ip q4d x3, paclitaxel 15 mg/kg iv qod x5, cisplatin 2.7 mg/kg ip qd x5
[17] = Groups 3,5,7,9,11: elsamitrucin 5 mg/kg ip q4d x3, paclitaxel 7.5 mg/kg iv qod x5, cisplatin […] ip qd x5

Work on `CO[C@@H]1[C@@H](N)[C@@H](O[C@H]2[C@H](Oc3cccc4c(O)c5c(=O)oc6ccc(C)c7c(=O)oc(c34)c5c67)O[C@H](C)[C@H](O)[C@]2(C)O)O[C@H](C)[C@@H]1O` [Elsamitrucin, benzo(h)(1)benzopyrano(5,4,3-cde)(1)ebnzopyran-5,12-dione,10((2-O-(2-amino-2,6-dideoxy-3-O-methyl-alpha-D-galactopyranosyl)-6-deoxy-3-C-methyl-beta-D-galactopyranosyl)oxy)-6-hydroxy-1-methyl] yielded an IC50 ([1]; SKMES cells, single agent, read-out: average Dm) of 22 nM, an IC50 ([1]; SKMES, single agent, ten assays of Table 5, read-out: average Dm) of 22 nM and an IC50 ([1]; SKMES, single agent, ten assays of Table 5, read-out: range of Dm) of 11 to 53 nM. For the same compound, the IC50 [1, 6] was 12 nM, the IC50 [1, 7] was 25.6 nM and the IC50 [1, 8] was 24.4 nM. For the same compound, the IC50 [1, 9] was 21 nM, the IC50 ([2]; HT29, single agent on the same plate as the combination, read-out: Dm Value, Individually, Elsamitrucin) was 36 nM and 118 nM and 96 nM and 58 nM and 54 nM and 67 nM and 39 nM and 40 nM and 103 nM and 51 nM and 37 nM and 29 nM and 86 nM and 73 nM and 50 nM and 71 nM and 124 nM and 32 nM and 27 nM and the IC50 ([2]; Homo sapiens, HT-29, HT29, Table 1, read-out: average Dm determined in the preliminary experiments) was 77 nM. The IC50 ([2]; Homo sapiens, HT-29, HT29, single agent, ten selected assays of Table 2, read-out: average Dm) was 63 nM, the IC50 ([2]; Homo sapiens, HT-29, HT29, single agent, ten selected assays of Table 2, read-out: range of Dm) was 36 to 118 nM and the IC50 ([2]; Homo sapiens, HT-29, HT29 cells, single agent, read-out: average Dm) was 63 nM. For the same compound, the IC50 [2, 10] was 80 nM, the IC50 [2, 11] was 81 nM and the IC50 [2, 12] was 70 nM. For the same compound, the IC50 [2, 13] was 77 nM, the IC50 ([3]; Daudi growth inhibition, elsamitrucin alone, one value per plate, Table 8 (Supplement), read-out: Dm Value (95% Confidence Interval), Individually, Elsamitrucin) was 23 nM and 30 nM and 28 nM and 15 nM and 13 nM and 34 nM and 26 nM and the IC50 ([3]; Daudi growth inhibition, elsamitrucin alone, one value per plate, Table 8, read-out: Dm Value (95% Confidence Interval), Individually, Elsamitrucin) was 30 nM and 28 nM and 13 nM and 34 nM and 26 nM and 23 nM. For the same compound, the IC50 [3, 14] was 12 nM, the IC50 ([3]; Homo sapiens, Daudi, SPA-15 (Daudi-e03), single agent, dilution 1:1.5 (elsamitrucin 1:1.33), read-out: CalcuSyn Dm) was 46 nM and the IC50 ([3]; Homo sapiens, Daudi, SPA-15 (Daudi-e03), single agent, dilution 1:1.5 (elsamitrucin 1:1.33), read-out: Prism IC50) was 40 nM. It also gave an IC50 [3, 15] of 33 nM, an IC50 ([3]; Homo sapiens, Daudi, single agent, ten assays of Table 8, read-out: average Dm) of 27 nM and an IC50 ([3]; Homo sapiens, Daudi, single agent, ten assays of Table 8, read-out: range of Dm) of 13 to 34 nM. For the same compound, the “Day of Mean BW Nadir” value [4, 16] was 7 days, the “Mean BW Nadir (lowest group mean body weight, as % change from Day 1)” value [4, 16] was −8.4% and the “No. of NTR (non-treatment-related death)” value [4, 16] was 0. The “No. of TR (treatment-related death)” value [4, 16] was 0, the “Day of Mean BW Nadir” value [4, 17] was 7 days and the “No. of NTR (non-treatment-related death)” value [4, 17] was 0. The “No. of TR (treatment-related death)” value [4, 17] was 0, the “Mean BW Nadir (lowest group mean body weight, as % change from Day 1)” value ([4]; Groups 3,5,7,9,11: elsamitrucin 5 mg/kg ip q4d x3, paclitaxel 7.5 mg/kg iv qod x5, cisplatin […] ip qd x5, — indicates no decrease in mean body weight was observed) was −4.8% and the “group body weight loss” value ([4]; elsamitrucin 10 mg/kg, in monotherapy and in the combinations) was “modest group BW losses”.

With `CC(=O)O[C@H]1C(=O)[C@@]2(C)[C@H]([C@H](OC(=O)c3ccccc3)[C@]3(O)C[C@H](OC(=O)[C@H](O)[C@@H](NC(=O)c4ccccc4)c4ccccc4)C(C)=C1C3(C)C)[C@]1(OC(C)=O)CO[C@@H]1C[C@@H]2O` [Paclitaxel, paclitaxel] the IC50 ([1]; SKMES growth inhibition, second agent alone, one value per plate (Experiment ID), read-out: Dm Value (95% Confidence Interval), Individually, Second Agent) was 3.5 nM, the IC50 ([1]; SKMES, single agent on the same plate as the combination, read-out: Dm Value, Individually, Second Agent) was 3.5 nM and the IC50 [1, 6] was 1.1 nM. It also gave an IC50 [1, 7] of 2.8 nM, an IC50 [1, 8] of 2.6 nM and an IC50 [1, 9] of 2 nM. It also gave an IC50 ([2]; Homo sapiens, HT-29, HT29, single agent on the same plate as the combination, read-out: Dm Value, Individually, Second Agent) of 3.2 nM, an IC50 [2, 10] of 1.6 nM and an IC50 [2, 11] of 2.3 nM. It also gave an IC50 [2, 12] of 2.4 nM, an IC50 [2, 13] of 2 nM and an IC50 ([3]; Homo sapiens, Daudi, Daudi growth inhibition, second agent alone, one value per plate, Table 8 (Supplement), read-out: Dm Value (95% Confidence Interval), Individually, Second Agent) of 4 nM. For the same compound, the IC50 ([3]; Homo sapiens, Daudi, Daudi growth inhibition, second agent alone, Table 8, read-out: Dm Value (95% Confidence Interval), Individually, Second Agent) was 4 nM, the IC50 [3, 14] was 3.6 nM and the IC50 ([3]; Homo sapiens, Daudi, SPA-08 (Daudi-e02), single agent, dilution 1:1.5, read-out: CalcuSyn Dm) was 4.1 nM. For the same compound, the IC50 ([3]; Homo sapiens, Daudi, SPA-08 (Daudi-e02), single agent, dilution 1:1.5, read-out: Prism IC50) was 3.3 nM, the IC50 [3, 15] was 4 nM and the IC50 ([3]; Homo sapiens, Daudi, read-out: approximate Dm values for the second drugs as single agents) was roughly 4 nM. The “optimum therapeutic dose identified in previous studies” value [5] was 30 mg/kg, the “Day of Mean BW Nadir” value [4, 16] was 7 days and the “Mean BW Nadir (lowest group mean body weight, as % change from Day 1)” value [4, 16] was −4.6%. For the same compound, the “No. of NTR (non-treatment-related death)” value [4, 16] was 0, the “No. of TR (treatment-related death)” value [4, 16] was 0 and the “No. of NTR (non-treatment-related death)” value [4, 17] was 0. The “No. of TR (treatment-related death)” value [4, 17] was 0.
